This note sets out measurements from patent US20130225412A1, “SILICON NANOCARRIER FOR DELIVERY OF DRUG, PESTICIDES AND HERBICIDES , AND FOR WASTE WATER TREATMENT” (priority 2012, published 2013).

This data set can be described thus: Release from loaded diatomaceous earth measured by Nano Drop spectrophotometer. The data set is classed as physicochemical. The conditions noted are these: for start of release after loading / time of peak release: release pattern measured by NanoDrop. On the procedure:
According to embodiments herein, the diatom structure and drug loading capacity can vary for different kind of medicines. For example for anticancer Fluorouracil (5-FU or f5U) a master mix of 50 mg/ml was prepared. 0.8 ml of this master mix was added to 200 ml pure ethanol. 0.6 g diatomaceous earth (diatom cell wall) was added to this mixture and was left to be stirred for 3 hours with 200 rpm. Finally after filtration, diatom cell wall was washed once with methanol. 12 hours later at room temperature diatom cell wall were dried and loaded with Fluorouracil (5-FU or f5U).
Final concentration of 200 mg/ml of Gallic acid in Methanol/Diatomaceous Earth was prepared. To ensure that none of the Gallic acid was left on the outer surface of nano silicon, it washed by Methanol. After his, its release in water by interval of 2 hours was measured at the wavelength of 270 nm.
Evaluation of Benomyl fungicide release by nano Drop Spectrophotometer: Material and methods were identically same as Gallic Acid. After measuring all ODs, release calibration curve was drawn. […] With respect to FIG. 5, it is seen that the Benomyl releases after 12 hours of loading and gets to its peak release after 40 hours and the release decreases sharply. This is a kind of controlled release.
5-flouracil release pattern by nano Drop Spectrophotometer was evaluated. […] With respect to FIG. 6, it can be seen that the drug 5-Florouracil releases after 8 hours from the loading starts and 16 hours after gets peak release and then fall of gradually. This is a kind of controlled release.
Progesterone release pattern by nano Drop Spectrophotometer was evaluated.

On to `CCCCNC(=O)n1c(NC(=O)OC)nc2ccccc21` [Benomyl], for which the “start of release after loading” value was 12 h and the “time of peak release” value was 40 h.

For `O=C(O)c1cc(O)c(O)c(O)c1` [Gallic acid], the release in water entry (loaded in Diatomaceous Earth, washed by Methanol) is given as “none of the Gallic acid has been released in water”. For the same compound, where the note is “release in water, interval of 2 hours, wavelength 270 nm, loaded in Diatomaceous Earth”, the “optical density (ODs) measures” value was “zero”.

Take `CC(=O)[C@H]1CC[C@H]2[C@@H]3CCC4=CC(=O)CC[C@]4(C)[C@H]3CC[C@]12C` [Progesterone]: the “start of release after loading” value was determined as 4 h and the “time of peak release” value turned out to be 28 h.

On to `O=c1[nH]cc(F)c(=O)[nH]1` [fluorouracil], for which the “start of release after loading” value worked out at 8 h and the “time of peak release” value came out at 16 h.
